Reference: patent US20150284364A1, “SUBSTITUTED INDOLE DERIVATIVES” (priority 2012, published 2015)
Values after ≈ are worked out from the molar mass of the structure shown. One block for each compound: values may come before it.

Tests used:
[1] = Physical stability: equilibration of suspension, XRPD of isolated solid; assay type: physicochemical; conditions: based upon the equilibration experiments
Experimental: Samples of example 1 free base which are a mixture of monohydrate and trihydrate were suspended in an organic solvent water mixture of water and equilibrated for about 4 days at 25°. […] After equilibration the suspension was filtered and the solid material isolated and analysed by XRPD.

[2] = Solubility in simulated gastric and intestinal fluids; assay type: physicochemical; conditions: for Final pH: solubility test
From the text: Solubility of compound Example No. 1 in simulated gastric and in simulated intestinal fluids at room temperature
Solubility of compound Example No. 3 (free form/acetate salt form) in simulated gastric fluids: […]

[3] = system: Bone marrow cells from CBA mice; assay: Bone marrow cell proliferation (BM) assay; assay type: cell-based; conditions: Mus musculus, 3H-thymidine incorporation, four days incubation
Experimental: Bone marrow cells from CBA mice (2.5×10^4 cells per well in flat bottom tissue culture microtiter plates) were incubated in 100 μL RPMI medium containing 10% FCS, 100 U/mL penicillin, 100 μg/mL streptomycin (Gibco BRL, Basel Switzerland), 50 μM 2-mercaptoethanol (Fluka, Buchs, Switzerland), WEHI-3 conditioned medium (7.5% v/v) and L929 conditioned medium (3% v/v) as a source of growth factors and serially diluted compounds. Seven three-fold dilution steps in duplicates per test compounds were performed. After four days of incubation 1 μCi ^3H-thymidine was added. Cells were harvested after an additional five-hour incubation period, and incorporated ^3H-thymidine was determined according to standard procedures. Conditioned media were prepared as follows. WEHI-3 cells (ATCC TIB68) and L929 cells (ATCC CCL 1) were grown in RPMI medium until confluence for 4 days and one week, respectively. Cells were harvested, resuspended in the same culture flasks in medium C containing 1% FCS (Schreier and Tess 1981) for WEHI-3 cells and RPMI medium for L929 cells and incubated for 2 days (WEHI-3) or one week (L929). The supernatant was collected, filtered through 0.2 μm and stored in aliquots at −80° C. Cultures without test compounds and without WEHI-3 and L929 supernatants were used as low control values. Low control values were subtracted from all values. […]

[4] = Blood levels and pharmacokinetics after oral administration of compound of example No. 1; assay type: in vivo, Beagle dogs; conditions: example 3 main component in blood after around an hour
Experimental: A single dose of the compound of example 1 (3.0 mg/kg) was administered p.o. to 3 male Beagle dogs. Compound 1 was dosed as an aqueous suspension of the crystalline monohydrate form in Methylcellulose (0.5%): Tween 80 (1%) (90:10). Blood was taken in regular intervals by venipuncture, and the samples were analyzed for a period of up to 24 hours. The compounds of the examples 1, 2, and 3 were quantitatively assessed over time, and the results are tabulated below:
Key pharmacokinetic parameters (mean values±standard deviations (n=3) for 1, 2 and 3 after oral dosing of example No. 1.

[5] = Chemical stability of the trihydrate of example 1; assay type: physicochemical
[6] = Chemical stability of amorphous and crystalline example No. 1 (solid state); assay type: physicochemical; conditions: for Purity: 1 week; for Initial Purity: before exposure

Structure (SMILES): Cc1cccc2c(C3=C(c4nc(N5CCNC6(CC6)C5)cc5ccccc45)C(=O)N(COP(=O)(O)O)C3=O)c[nH]c12.O.O.O [trihydrate of example 1, phosphoric acid mono-[3-[3-(4,7-diaza-spiro[2.5]oct-7-yl)-isoquinolin-1-yl]-4-(7-methyl-1H-indol-3-yl)-2,5-dioxo-2,5-dihydro-pyrrol-1-ylmethyl]ester, trihydrate]
relative thermodynamic stability of hydrate forms [1]: thermodynamically more stable than the monohydrate

Final pH ([2]; Acetate Salt, FaSSIF pH 6.5): 3.97
Final pH ([2]; Acetate Salt, FeSSIF pH 5.8): 6.5
Final pH ([2]; Acetate Salt, SGF pH 2): 5.45
solubility ([2]; fasted state simulated intestinal fluid (FaSSIF), Acetate Salt, FaSSIF pH 6.5): 50 µg/mL
solubility ([2]; fed state simulated intestinal fluid (FeSSIF), Acetate Salt, FeSSIF pH 5.8): 550 µg/mL
solubility ([2]; simulated gastric fluid (SGF), simulated gastric fluid, Acetate Salt, SGF pH 2): 150 µg/mL
Structure (SMILES): Cc1cccc2c(C3=C(c4nc(N5CCNC6(CC6)C5)cc5ccccc45)C(=O)NC3=O)c[nH]c12 [Example 3, 3-[3-(4,7-diaza-spiro[2.5]oct-7-yl)-isoquinolin-1-yl]-4-(7-methyl-1H-indol-3-yl)-pyrrole-2,5-dione]
IC50 [3]: 1670 ± 256 nM

Structure (SMILES): Cc1cccc2c(C3=C(c4nc(N5CCNC6(CC6)C5)cc5ccccc45)C(=O)N(COP(=O)(O)O)C3=O)c[nH]c12 [Example 1, Phosphoric acid mono-[3-[3-(4,7-diaza-spiro[2.5]oct-7-yl)-isoquinolin-1-yl]-4-(7-methyl-1H-indol-3-yl)-2,5-dioxo-2,5-dihydro-pyrrol-1-ylmethyl]ester]
conversion of prodrug into parent compound in blood [4]: effective and favorable conversion into a parent compound
solubility ([2]; Fasted state simulated intestinal fluid (FaSSIF) pH 6.5, room temperature): 100 µg/mL (≈ 174 µM)
solubility ([2]; Fed state simulated intestinal fluid (FeSSIF) pH 5.8, room temperature): 130 µg/mL (≈ 227 µM)
solubility ([2]; Simulated gastric fluid (SGF) pH 2, room temperature): 40 µg/mL (≈ 69.7 µM)
Final pH ([2]; FaSSIF pH 6.5): 6.59
Final pH ([2]; FeSSIF pH 5.8): 6.05
Final pH ([2]; SGF pH 2): 2.22
IC50 [3]: 6740 ± 1120 nM
Purity of example 1 in % ([5]; 2 weeks 50° C.): 95.57%
Sum of related. Substances in area % ([5]; 2 weeks 50° C.): 4.52 area %
Purity of example 1 in % ([5]; 2 weeks 50° C./75% RH): 96.20%
Sum of related. Substances in area % ([5]; 2 weeks 50° C./75% RH): 3.66 area %
Purity of example 1 in % ([5]; initial): 98.06%
Sum of related. Substances in area % ([5]; initial): 1.64 area %
Purity ([6]; Amorphous, 50 ° C.): 95.8%
Purity ([6]; Amorphous, 80 ° C.): 89.7%
Initial Purity ([6]; Amorphous): 98.5%
Purity ([6]; Crystalline monohydrate, 50 ° C.): 100%
Purity ([6]; Crystalline monohydrate, 80 ° C.): 100%
Initial Purity ([6]; Crystalline monohydrate): 100%
